Source: the NIST ThermoML archive (doi:10.1021/acs.jced.5b00197)

Test: refractive index (other wavelength) (dimensionless); xn = mol fraction of the nth substance listed
Conditions: 94.64 kPa, Liquid, Standard Abbe refractometry

CC(=O)O [acetic acid] + Cc1ccccc1
refractive index
Conditions	Wavelength=404.7 nm	Wavelength=435.8 nm	Wavelength=486.1 nm	Wavelength=546.1 nm	Wavelength=587.6 nm	Wavelength=632.8 nm	Wavelength=644 nm	Wavelength=706.5 nm
293.15 K, x1 = 0.146	1.51185	1.50406	1.49519	1.48808	1.4846	1.48156	1.48087	1.47771
293.15 K, x1 = 0.277	1.49627	1.48902	1.48081	1.47416	1.47093	1.4681	1.46744	1.46997
293.15 K, x1 = 0.397	1.48254	1.47576	1.4681	1.46191	1.45889	1.45622	1.4556	1.4528
293.15 K, x1 = 0.506	1.46794	1.46165	1.45457	1.44883	1.44603	1.44355	1.44297	1.44033
293.15 K, x1 = 0.605	1.45403	1.44826	1.44171	1.43642	1.43382	1.43151	1.43097	1.42851
293.15 K, x1 = 0.697	1.43966	1.43437	1.4285	1.42367	1.42129	1.41917	1.41867	1.41635
293.15 K, x1 = 0.782	1.42556	1.42081	1.41549	1.41115	1.40899	1.40703	1.40657	1.40444
293.15 K, x1 = 0.859	1.41172	1.40749	1.40275	1.39886	1.39688	1.3951	1.39469	1.39271
293.15 K, x1 = 0.897	1.40081	1.397	1.39273	1.38919	1.38738	1.38572	1.38534	1.38353
293.15 K, x1 = 0.932	1.39511	1.39153	1.3875	1.38415	1.38242	1.38084	1.38047	1.37874
293.15 K, x1 = 0.967	1.38917	1.38582	1.38206	1.37892	1.37727	1.37577	1.37542	1.37375
293.15 K, x1 = 1	1.38345	1.38034	1.37681	1.37386	1.3723	1.37087	1.37055	1.36896
298.15 K, x1 = 0.146	1.50896	1.50121	1.49239	1.48532	1.48187	1.47884	1.47816	1.47502
298.15 K, x1 = 0.277	1.4934	1.48619	1.47801	1.47142	1.46821	1.46538	1.46473	1.46178
298.15 K, x1 = 0.397	1.47979	1.47305	1.46545	1.45928	1.45629	1.45365	1.45303	1.45023
298.15 K, x1 = 0.506	1.46521	1.45896	1.45191	1.44622	1.44342	1.44095	1.44038	1.43776
298.15 K, x1 = 0.605	1.45129	1.44555	1.43909	1.43383	1.43125	1.42896	1.42842	1.42598
298.15 K, x1 = 0.697	1.43707	1.43182	1.42596	1.42117	1.41881	1.41669	1.41619	1.4139
298.15 K, x1 = 0.782	1.42305	1.41834	1.41304	1.40874	1.40658	1.40463	1.40417	1.40417
298.15 K, x1 = 0.859	1.41005	1.40512	1.40043	1.39655	1.3946	1.39284	1.39242	1.39049
298.15 K, x1 = 0.897	1.39862	1.39482	1.3906	1.38706	1.38527	1.38364	1.38326	1.38144
298.15 K, x1 = 0.932	1.39296	1.38941	1.3854	1.38208	1.38035	1.37878	1.37842	1.37669
298.15 K, x1 = 0.967	1.3871	1.38379	1.38002	1.37691	1.37526	1.37375	1.37341	1.37177
298.15 K, x1 = 1	1.38126	1.37816	1.37466	1.37174	1.37018	1.36876	1.36844	1.36686
303.15 K, x1 = 0.146	1.50611	1.49841	1.48963	1.48261	1.47918	1.47618	1.47549	1.47237
303.15 K, x1 = 0.277	1.4905	1.48332	1.47522	1.46865	1.46547	1.46268	1.46203	1.45908
303.15 K, x1 = 0.397	1.47698	1.47026	1.46273	1.45661	1.45363	1.451	1.45039	1.44761
303.15 K, x1 = 0.506	1.46241	1.45621	1.44918	1.44352	1.44075	1.4383	1.43773	1.43513
303.15 K, x1 = 0.605	1.44837	1.44266	1.43626	1.43107	1.42851	1.42623	1.42569	1.42326
303.15 K, x1 = 0.697	1.4344	1.42918	1.42331	1.41861	1.41625	1.41415	1.41365	1.41136
303.15 K, x1 = 0.782	1.42104	1.41634	1.41106	1.40674	1.4046	1.40267	1.40221	1.4001
303.15 K, x1 = 0.859	1.40698	1.40281	1.39813	1.3943	1.39235	1.39059	1.39018	1.38824
303.15 K, x1 = 0.897	1.39635	1.3926	1.38838	1.3849	1.38309	1.38146	1.38109	1.37929
303.15 K, x1 = 0.932	1.3908	1.38725	1.38329	1.37997	1.37826	1.37671	1.37634	1.37461
303.15 K, x1 = 0.967	1.38499	1.38168	1.37795	1.37485	1.37321	1.37172	1.37138	1.36976
303.15 K, x1 = 1	1.37917	1.37611	1.37261	1.36968	1.36815	1.36675	1.36643	1.36485
